# Measured values from ChEMBL document CHEMBL3734723, “Synthesis and anticancer activity of 6-heteroarylcoumarins” (2015).
# How the values were obtained:
# Type in all cases: functional
# [1] = Growth inhibition of human Caki1 cells incubated for 48 hrs by sulforhodamine B assay; details: CAKI-1, 48 h
# [2] = test system: MDA-MB-435; experiment: Growth inhibition of human MDA-MB-435 cells incubated for 48 hrs by sulforhodamine B assay; details: MDA-MB-435, 48 h
# [3] = Cytotoxicity against human HOP62 cells assessed as cell growth at 10 uM incubated for 48 hrs by sulforhodamine B assay; details: HOP-62, 48 h, read-out: Activity
# [4] = Cytotoxicity against human COLO205 cells assessed as cell growth at 10 uM incubated for 48 hrs by sulforhodamine B assay; details: COLO 205, 48 h, read-out: Activity
# [5] = Cytotoxicity against human OVCAR8 cells assessed as cell growth at 10 uM incubated for 48 hrs by sulforhodamine B assay; details: OVCAR-8, 48 h, read-out: Activity
# [6] = test system: NCI-H226; experiment: Cytotoxicity against human NCI-H226 cells assessed as cell growth at 10 uM incubated for 48 hrs by sulforhodamine B assay; details: NCI-H226, 48 h, read-out: Activity
# [7] = Growth inhibition of human SF295 cells incubated for 48 hrs by sulforhodamine B assay; details: SF-295, 48 h
# [8] = Cytotoxicity against human DU145 cells assessed as cell growth at 10 uM incubated for 48 hrs by sulforhodamine B assay; details: DU-145, 48 h, read-out: Activity
# [9] = Cytotoxicity against human BT549 cells assessed as cell growth at 10 uM incubated for 48 hrs by sulforhodamine B assay; details: BT-549, 48 h, read-out: Activity
# [10] = test system: SK-MEL-2; experiment: Cytotoxicity against human SK-MEL-2 cells assessed as cell growth at 10 uM incubated for 48 hrs by sulforhodamine B assay; details: SK-MEL-2, 48 h, read-out: Activity
# [11] = Growth inhibition of human MOLT4 cells incubated for 48 hrs by sulforhodamine B assay; details: MOLT-4, 48 h
# [12] = Cytotoxicity against human HCC2998 cells assessed as cell growth at 10 uM incubated for 48 hrs by sulforhodamine B assay; details: HCC 2998, 48 h, read-out: Activity
# [13] = Cytotoxicity against human SKOV3 cells assessed as cell growth at 10 uM incubated for 48 hrs by sulforhodamine B assay; details: SK-OV-3, 48 h, read-out: Activity
# [14] = Cytotoxicity against human OVCAR3 cells assessed as cell growth at 10 uM incubated for 48 hrs by sulforhodamine B assay; details: OVCAR-3, 48 h, read-out: Activity
# [15] = test system: SK-MEL-28; experiment: Cytotoxicity against human SK-MEL-28 cells assessed as cell growth at 10 uM incubated for 48 hrs by sulforhodamine B assay; details: SK-MEL-28, 48 h, read-out: Activity
# [16] = test system: NCI-H322M; experiment: Cytotoxicity against human NCI-H322M cells assessed as cell growth at 10 uM incubated for 48 hrs by sulforhodamine B assay; details: read-out: Activity
# [17] = Cytotoxicity against human UACC257 cells assessed as cell growth at 10 uM incubated for 48 hrs by sulforhodamine B assay; details: UACC-257, 48 h, read-out: Activity
# [18] = read-out: LC50 (the source's name)
smiles,measurement,setting,value
Cc1cc(=O)oc2c(C)c(O)c(-c3ccnc(N)n3)cc12,GI50,[1],3.95 µM
same,TGI,[1],> 100 µM
same,CC50,[1]; [18],> 100 µM
same,GI50,[2],> 100 µM
same,TGI,[2],> 100 µM
same,CC50,[2]; [18],> 100 µM
same,growth at 10 µM,[3],67.8%
same,growth at 10 µM,[4],46.9%
same,growth at 10 µM,[5],48%
same,growth at 10 µM,[6],52.3%
same,GI50,[7],8.74 µM
same,TGI,[7],> 100 µM
same,CC50,[7]; [18],> 100 µM
same,growth at 10 µM,[8],66.6%
Cc1cc(=O)oc2c(C)c(O)c(-c3cc4ccc(F)cc4[nH]3)cc12,growth at 10 µM,[9],47.6%
same,growth at 10 µM,[10],19.5%
same,GI50,[11],3.27 µM
same,TGI,[11],15 µM
same,CC50,[11]; [18],> 100 µM
same,growth at 10 µM,[12],24.9%
same,growth at 10 µM,[13],47.1%
same,growth at 10 µM,[14],16.5%
same,growth at 10 µM,[15],55.3%
same,growth at 10 µM,[16],53.4%
same,growth at 10 µM,[17],30.4%
